This is an account of results in patent US11833187B2, “Materials and methods for extracellular vessicle-associated diseases” (THE BRIGHAM AND WOMEN'S HOSPITAL, INC., priority 2017, dated 2023).

Entries after “also recorded” stand apart in the source; their conditions may differ. Peptide text beside a SMILES is read from it. * marks the point of attachment. Cbz = O=C(OCc1ccccc1)*

Experiment [1] has as its target T1, FLAG-sortilin (Homo sapiens, UniProt Q99523).
T1 construct: pcDNA3.1(+) FLAG-sortilin full-length (Full), amino acids (aa) 1-831; expressed in transfected cells; cells and their extracellular vesicles
T1 sequence (Q99523 78-831): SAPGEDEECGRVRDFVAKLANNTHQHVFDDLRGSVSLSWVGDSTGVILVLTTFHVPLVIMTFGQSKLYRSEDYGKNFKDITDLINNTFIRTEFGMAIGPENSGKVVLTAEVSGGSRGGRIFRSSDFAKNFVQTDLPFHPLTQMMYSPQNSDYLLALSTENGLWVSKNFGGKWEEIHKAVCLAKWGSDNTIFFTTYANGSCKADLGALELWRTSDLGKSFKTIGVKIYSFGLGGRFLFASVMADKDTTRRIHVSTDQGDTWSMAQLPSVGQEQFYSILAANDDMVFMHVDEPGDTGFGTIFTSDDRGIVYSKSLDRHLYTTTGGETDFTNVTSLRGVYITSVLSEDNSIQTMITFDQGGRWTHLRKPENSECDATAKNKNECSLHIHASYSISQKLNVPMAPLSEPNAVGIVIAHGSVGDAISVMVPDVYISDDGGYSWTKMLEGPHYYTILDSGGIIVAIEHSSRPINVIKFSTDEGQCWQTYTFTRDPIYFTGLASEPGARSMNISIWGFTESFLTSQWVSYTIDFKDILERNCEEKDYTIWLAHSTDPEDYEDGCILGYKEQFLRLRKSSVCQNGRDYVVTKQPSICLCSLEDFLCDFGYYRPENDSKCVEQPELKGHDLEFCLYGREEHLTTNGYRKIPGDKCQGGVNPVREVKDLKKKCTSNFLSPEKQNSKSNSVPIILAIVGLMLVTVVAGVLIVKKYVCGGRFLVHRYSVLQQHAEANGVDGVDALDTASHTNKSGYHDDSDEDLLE
Kind of experiment: Non-reducing western blotting of sortilin dimerization in extracellular vesicles of FLAG-sortilin HEK293 cells. The note with it: for sortilin homodimers (dimerization) in the extracellular vesicles: EVs of HEK293 cells stably overexpressing FLAG-sortilin, 24-h incubation, n=3; for dimerization of sortilin in the extracellular vesicles: EVs of FLAG-sortilin HEK293 cells, propeptide 100 nmol/L, 24 hours, n=2. In kind it is cell-based. The method, then:
(§1) Cells, EVs and the supernatant of culture medium were lysed with IP lysis buffer (Thermo Fisher Scientific Inc., Cat #87787) containing protease inhibitor (Roche Diagnostics, Cat #04693159001). Protein concentration was measured using the bicinchoninic acid (BCA) method (Thermo Fisher Scientific Inc., Cat #23225). Laemmli buffer (Boston Bioproduct; non-reducing, Cat #BP-110NR; reducing, Cat #BP-111R) was added to the lysate, and boiled at 95° C. for 5 minutes. Total protein was separated by 4-12% SDS-PAGE and transferred to polyvinylidene difluoride (PVDF) membrane using iBlot Western blotting system (Life Technologies) or conventional wet method. Primary antibodies against human sortilin ICD (rabbit 1:1000; Abcam plc., Cat #ab16640, Lot #GR185198-1), human (3-actin (mouse 1:2000; Novus Biologicals, LLC, Cat #NB600-501, Lot #014M4759), FLAG (rabbit 1:1000; Sigma, Cat #F4725, Lot #093M4798, mouse (M2) 1:1000; Sigma, Cat #F1804, Lot #SLBJ4607V), 6×His (mouse 1:1000; Abcam plc., Cat #ab18184, Lot #GR247674-1).
(§2) HEK293 cells were purchased from American Type Culture Collection (ATCC) and maintained in Eagle's minimum essential medium (EMEM, ATCC, Cat #30-2003) supplemented with 10% fetal bovine serum (FBS), penicillin (100 U/mL), and streptomycin (100 μg/mL) at 37° C. in a humidified atmosphere of 5% CO2. For transfection in HEK293 cells, Lipofectamine 2000 reagent (Thermo Fisher Scientific Inc., Cat #11668019) was used, according to the manufacturer's protocol. HEK293 cells stably expressing FLAG-sortilin Full, ECD+TMD, ICD+TMD and sortilin-3×FLAG were obtained by transfection with pcDNA3.1(+) FLAG-sortilin Full, pcDNA3.1(+) FLAG-sortilin-ECD+TMD, pcDNA3.1(+) FLAG-sortilin ICD+TMD, and expression vector of sortilin-3×FLAG (GeneCopoeia, Inc., Cat # EX-M0397-M14), respectively. These cell lines were maintained in EMEM supplemented with 10% FBS, penicillin/streptomycin, and geneticin 800 μg/mL. Cells were incubated in the incubator with MG-132 and chloroquine during the indicated time, and with 2-FPA and sortilin propeptide for 24 hours, respectively.
Separation of culture medium to supernatant and EVs was performed according to the protocol previously reported (41). Culture medium underwent centrifugation at 1,000 rpm for 5 minutes to remove cell debris. Then, the supernatant and EVs were separated by ultracentrifugation at 100,000 g for 40 minutes at 4° C. (Optima Max Ultracentrifuge, Beckman Coulter).

Experiment [2] concerns the target T1, FLAG-sortilin. Kind of experiment: Non-reducing western blotting of sortilin dimerization in FLAG-sortilin HEK293 cells. It is filed as cell-based. Conditions: for sortilin homodimers of low molecular weight in the cells: HEK293 cells stably overexpressing FLAG-sortilin, 24-h incubation, n=3; for dimerization of sortilin in the cells: FLAG-sortilin HEK293 cells, propeptide 100 nmol/L, 24 hours, n=2. The method, then: as §1, §2

Experiment [3] has as its system FLAG-sortilin ICD+TMD. Kind of experiment: Reducing western blotting of FLAG-sortilin ICD+TMD protein expression in stably overexpressing HEK293 cells. It is filed as cell-based, human. The note with it: for protein expression of FLAG-sortilin ICD+TMD: MG-132 20 μmol/L or chloroquine 10 μmol/L for 7 hours, n=3. The method, then: as §1, §2
Setting [4] is: listed as palmitoylation inhibitor.

With `CCCCCCCCCCCCCCC(F)C(=O)O` (stereo not drawn) [2-FPA, 2-fluoropalmitic acid], the “sortilin homodimers (dimerization) in the extracellular vesicles” value in experiment [1] is on record as “increased dimerization of FLAG-sortilin in the EVs; also recorded: increased sortilin homodimers of low molecular weight”; in experiment [1] (setting [4]) it was “increased transport of dimerized sortilin to EVs”. Moreover, the “sortilin homodimers of low molecular weight in the cells” value is given as “increased only homodimers of lower molecular size in the cells; also recorded: increased sortilin homodimers of low molecular weight” in experiment [2] and “increased sortilin dimerization” in experiment [2] (setting [4]).
With “sortilin-derived propeptide: Sortilin propeptide (SEQ ID NO: 2), purchased from Phoenix Pharmaceuticals; the claimed inhibitor of sortilin dimerization (QDRLDAPPPPAAPLPRWSGPIGVSWGLRAAAAGGAFPRGGRWRR; listed as Homo sapiens)”, the “dimerization of sortilin in the extracellular vesicles” value was “decreased sortilin homodimers within EVs; also recorded: decreases sortilin homodimers in EVs; also recorded: decreased dimerization in the extracellular vesicles” in experiment [1] and “decreased dimerization of sortilin in the extracellular vesicles” in experiment [1] (listed as propeptide). For the same molecule, the figures for the “dimerization of sortilin in the cells” value in experiment [2] and in experiment [2] (listed as propeptide) were “did not affect dimerization in the cells” and “a decrease in the cells was not observed”, respectively. The “sortilin dimerization (formation of homodimers), compartment not given” value in experiment [2] (HEK293 cell line, propeptide treatment, summary statement) is “reduced them; also recorded: sortilin dimerization was decreased”.
Consider `CC(C)C[C@@H](C=O)NC(=O)[C@H](CC(C)C)NC(=O)[C@H](CC(C)C)NC(=O)OCc1ccccc1` [MG-132] (Cbz-Leu-Leu-Leu-aldehyde), for which the “protein expression of FLAG-sortilin ICD+TMD” value in experiment [3] was “increased the protein expression of FLAG-sortilin ICD+TMD”. Further, the “protein expression of FLAG-sortilin ICD+TMD, time and concentration dependence” value in experiment [3] (MG-132 2-20 μmol/L for 7 or 24 hours) was “increased protein expression of FLAG-sortilin ICD+TMD in a time- and concentration-dependent manner”.
For Chloroquine diphosphate salt, the “protein expression of FLAG-sortilin ICD+TMD” value in experiment [3] is listed as “did not”.
